Assay [1] deals with T1, human TLR8 (Homo sapiens, UniProt Q9NR97).
T1 construct: host or cells: HEK293
T1 sequence (Q9NR97 27-1041): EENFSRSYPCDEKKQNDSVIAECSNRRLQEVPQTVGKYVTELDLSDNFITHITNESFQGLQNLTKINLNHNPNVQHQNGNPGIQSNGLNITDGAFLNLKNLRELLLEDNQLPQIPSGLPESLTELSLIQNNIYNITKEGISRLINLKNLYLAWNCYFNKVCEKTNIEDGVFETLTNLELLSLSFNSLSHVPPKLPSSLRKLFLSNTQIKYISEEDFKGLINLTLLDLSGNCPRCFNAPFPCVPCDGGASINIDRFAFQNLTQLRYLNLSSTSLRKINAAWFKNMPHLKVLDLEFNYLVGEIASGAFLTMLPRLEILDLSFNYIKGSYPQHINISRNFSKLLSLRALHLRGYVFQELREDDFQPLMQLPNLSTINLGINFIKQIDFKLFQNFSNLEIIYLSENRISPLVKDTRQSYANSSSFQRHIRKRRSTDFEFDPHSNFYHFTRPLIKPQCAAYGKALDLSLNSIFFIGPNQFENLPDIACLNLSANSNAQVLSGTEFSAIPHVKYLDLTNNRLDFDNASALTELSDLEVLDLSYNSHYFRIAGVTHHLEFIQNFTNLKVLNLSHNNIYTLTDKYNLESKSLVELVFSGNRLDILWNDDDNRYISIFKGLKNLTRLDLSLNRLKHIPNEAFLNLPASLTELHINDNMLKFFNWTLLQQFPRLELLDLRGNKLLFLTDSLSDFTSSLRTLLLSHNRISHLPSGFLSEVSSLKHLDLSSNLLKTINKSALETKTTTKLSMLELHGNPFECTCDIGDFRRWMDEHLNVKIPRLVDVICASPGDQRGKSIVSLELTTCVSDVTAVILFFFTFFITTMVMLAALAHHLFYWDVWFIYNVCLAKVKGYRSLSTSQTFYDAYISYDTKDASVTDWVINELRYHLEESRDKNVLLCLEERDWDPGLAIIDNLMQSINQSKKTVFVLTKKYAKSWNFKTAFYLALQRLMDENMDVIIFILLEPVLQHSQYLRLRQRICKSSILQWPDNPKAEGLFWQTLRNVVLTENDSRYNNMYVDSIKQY
As to the kind of experiment: TLR8 reporter cell assay (HEK293 cells stably expressing human TLR8 with NF-κB-driven SEAP reporter). In kind it is cell-based. The settings on record: concentrations up to 500 μM; significant = >5% of ymax. From the text:
The engagement of TLRs by cognate ligands triggers downstream signaling cascades, leading to the activation of NF-κB and other transcription factors which initiate various immunomodulatory effects. The human embryonic kidney cell line, HEK293, is essentially non-responsive to TLR agonists, but ectopic expression of TLRs in these cells allows cognate agonists to activate endogenous NF-κB. Accordingly, the HEK293-TLR-NF-κB inducible reporter system is used to assay TLR agonists.
HEK293 cell lines stably expressing human TLR7 or TLR8 together with an NF-κB-driven-secreted alkaline phosphatase (SEAP) reporter were invented at InvivoGen (San Diego, California, USA) and used to assess compounds of the present invention for TLR7 and TLR8 agonist activities. Cells were seeded at 2-5×10^4 cells/well in 96 well plates (200 μl/well) and treated with various concentrations of compound (10 μl) for 15-24 hours. SEAP activity was determined by measuring OD at 650 nm; the media used to culture the cell lines contains the reagents required for SEAP detection. […]

For assay [2], the target named is T2, human TLR7 (Homo sapiens, UniProt Q9NYK1).
T2 construct: host or cells: HEK293
T2 sequence (Q9NYK1 27-1049): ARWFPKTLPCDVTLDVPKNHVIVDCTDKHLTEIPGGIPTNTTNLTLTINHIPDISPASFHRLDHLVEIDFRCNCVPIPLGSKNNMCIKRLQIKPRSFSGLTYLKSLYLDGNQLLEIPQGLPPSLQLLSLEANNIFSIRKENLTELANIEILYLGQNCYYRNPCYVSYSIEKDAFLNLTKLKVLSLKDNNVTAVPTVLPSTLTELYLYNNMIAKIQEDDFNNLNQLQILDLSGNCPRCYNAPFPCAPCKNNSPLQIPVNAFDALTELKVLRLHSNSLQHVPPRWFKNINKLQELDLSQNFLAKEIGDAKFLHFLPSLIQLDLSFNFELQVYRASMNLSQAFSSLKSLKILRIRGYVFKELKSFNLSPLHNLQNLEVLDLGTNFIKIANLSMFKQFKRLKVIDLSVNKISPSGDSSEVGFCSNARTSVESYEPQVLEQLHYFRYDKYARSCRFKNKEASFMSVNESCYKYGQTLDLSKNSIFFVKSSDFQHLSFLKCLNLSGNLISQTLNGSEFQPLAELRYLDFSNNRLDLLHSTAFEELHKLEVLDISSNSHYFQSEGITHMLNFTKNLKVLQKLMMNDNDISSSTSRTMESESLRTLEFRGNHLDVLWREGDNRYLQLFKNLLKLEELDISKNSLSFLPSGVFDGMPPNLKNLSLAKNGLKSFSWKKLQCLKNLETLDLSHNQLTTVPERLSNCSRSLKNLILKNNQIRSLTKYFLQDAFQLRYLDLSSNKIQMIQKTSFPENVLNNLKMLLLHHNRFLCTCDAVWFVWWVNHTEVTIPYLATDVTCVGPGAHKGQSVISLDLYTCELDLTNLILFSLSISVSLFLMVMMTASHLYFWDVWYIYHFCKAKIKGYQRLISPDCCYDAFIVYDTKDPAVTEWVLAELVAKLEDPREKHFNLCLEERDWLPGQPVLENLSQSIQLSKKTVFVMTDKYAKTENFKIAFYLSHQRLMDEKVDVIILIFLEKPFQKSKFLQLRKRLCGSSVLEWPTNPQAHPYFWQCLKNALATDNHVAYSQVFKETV
As to the kind of experiment: TLR7 reporter cell assay (HEK293 cells stably expressing human TLR7 with NF-κB-driven SEAP reporter). It is filed as cell-based. The settings on record: 15-24 hours. In short, it runs like this: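 HEK293 cells stably expressing human TLR7 with an NF-κB-driven SEAP reporter, treated with compound for 15-24 hours. SEAP read at OD 650 nm. EC50 fitted by nonlinear least squares, maximum set by 28.5 μM resiquimod.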

By EC50 is commonly meant the concentration giving half of the maximal effect. High values mean a need for much substance, low ones an effect from little substance. Regarding `CC[C@H](O)[C@@H]1C[C@@H](O)[C@H](n2c(=O)sc3c(=O)[nH]c(N)nc32)O1` [Compound A, 5-amino-3-((2R,3R,5S)-3-hydroxy-5-((S)-1-hydroxypropyl)tetrahydrofuran-2-yl)thiazolo[4,5-d]pyrimidine-2,7(3H,6H)-dione, reference compound], the “activity in TLR8 reporter cell assay (% of ymax for TLR8 as measured at 28.5 μM resiquimod)” value in assay [1] is given as > 5 % of ymax. For the same compound, the Emax at 500 µM in assay [2] (HEK293, 500 μM compound, SEAP activity (OD 650 nm) relative to 28.5 μM resiquimod, read-out: Response at 500 μM Compound as a Percent of Resiquimod Response) came to 74%. In assay [2] (fit of SEAP dose response, ymax from 28.5 μM resiquimod), the EC50 was 51 µM.

The values are drawn from US12187759B2, “TLR7 agonists” (Primmune Therapeutics, Inc., priority 2019, dated 2025).
